Measured values published in patent US20110166121A1 (LG LIFE SCIENCES LTD., priority 2008, published 2011).

Test system: Human platelet aggregation caused by ADP
Test: Inhibition of ADP-induced platelet aggregation (Mimic-human PRP)
Type: cell-based
Details: 20 μM ADP, human platelet concentrate diluted with PPP, absorption at 595 nm
Outline: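 Ki came from non-linear sigmoidal fits of inhibition, measured as the 3-min rise in absorbance at 595 nm after 20 μM ADP, relative to 0/20 μM ADP controls. Platelets (3–4×10^8/mL in PPP-diluted human PRP) were exposed to 0.01–30 μM compound for 20 min at room temperature beforehand.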

Compound: CCCc1cc2c(N3CCn4c(nnc4C(F)(F)F)C3)nc(OCCC(=O)NC3CCCC3)nc2s1 [Example 9-69, N-Cyclopentyl-3-[6-propyl-4-(3-trifluoromethyl-5,6-dihydro-8H-[1,2,4]triazolo[4,3-a]pyrazin-7-yl)-thieno[2,3-d]pyrimidin-2-yloxy]-propionamide]
- Ki: 550 nM

Compound: CCCc1cc2c(N3CCn4c(nnc4C(F)(F)F)C3)nc(OCCC(N)=O)nc2s1 [Example 9-70, 3-[6-Propyl-4-(3-trifluoromethyl-5,6-dihydro-8H-[1,2,4]triazolo[4,3-a]pyrazin-7-yl)-thieno[2,3-d]pyrimidin-2-yloxy]-propionamide]
- Ki: 6 nM

Compound: CCCc1cc2c(N3CCn4c(nnc4C(F)(F)F)C3)nc(OCCC#N)nc2s1 [Example 9-71, 3-[6-Propyl-4-(3-trifluoromethyl-5,6-dihydro-8H-[1,2,4]triazolo[4,3-a]pyrazin-7-yl)-thieno[2,3-d]pyrimidin-2-yloxy]-propionitrile]
- Ki: 0.7 nM

Compound: CCCc1cc2c(N3CCn4c(nnc4C(F)(F)F)C3)nc(N3CC[C@H](C(=O)NN)C3)nc2s1 [Example 9-72, (S)-1-[6-Propyl-4-(3-trifluoromethyl-5,6-dihydro-8H-[1,2,4]triazolo[4,3-a]pyrazin-7-yl)-thieno[2,3-d]pyrimidin-2-yl]-pyrrolidine-3-carboxylic acid hydrazide]
- Ki: 0.6 nM

Compound: CCCc1cc2c(N3CCn4c(nnc4C(F)(F)F)C3)nc(OCCC(=O)NN)nc2s1 [Example 9-73, 3-[6-Propyl-4-(3-trifluoromethyl-5,6-dihydro-8H-[1,2,4]triazolo[4,3-a]pyrazin-7-yl)-thieno[2,3-d]pyrimidin-2-yloxy]-propionic acid hydrazide]
- Ki: 16 nM

Compound: CCCc1cc2c(N3CCn4c(nnc4C(F)(F)F)C3)nc(OC(C)CNC=O)nc2s1 (stereo not shown) [Example 9-74, N-{2-[6-Propyl-4-(3-trifluoromethyl-5,6-dihydro-8H-[1,2,4]triazolo[4,3-a]pyrazin-7-yl)-thieno[2,3-d]pyrimidin-2-yloxy]-propyl}-formamide]
- Ki: 3.8 nM

Compound: CCCc1cc2c(N3CCn4c(nnc4C(F)(F)F)C3)nc(OCC(C)NC=O)nc2s1 (stereo not shown) [Example 9-75, N-{1-Methyl-2-[6-propyl-4-(3-trifluoromethyl-5,6-dihydro-8H-[1,2,4]triazolo[4,3-a]pyrazin-7-yl)-thieno[2,3-d]pyrimidin-2-yloxy]-ethyl}-formamide]
- Ki: 3 nM

Compound: CCCc1cc2c(N3CCn4c(nnc4C(F)(F)F)C3)nc(OC(C)CNC(C)=O)nc2s1 (stereo not shown) [Example 9-76, N-{2-[6-Propyl-4-(3-trifluoromethyl-5,6-dihydro-8H-[1,2,4]triazolo[4,3-a]pyrazin-7-yl)-thieno[2,3-d]pyrimidin-2-yloxy]-propyl}-acetamide]
- Ki: 22 nM

Compound: CCCc1cc2c(N3CCn4c(nnc4C(F)(F)F)C3)nc(OCC(C)NC(C)=O)nc2s1 (stereo not shown) [Example 9-77, N-{1-Methyl-2-[6-propyl-4-(3-trifluoromethyl-5,6-dihydro-8H-[1,2,4]triazolo[4,3-a]pyrazin-7-yl)-thieno[2,3-d]pyrimidin-2-yloxy]-ethyl}-acetamide]
- Ki: 6 nM

Compound: CCCc1cc2c(N3CCn4c(nnc4C(F)(F)F)C3)nc(OCC(C)(C)NC=O)nc2s1 [Example 9-78, N-{1,1-Dimethyl-2-[6-propyl-4-(3-trifluoromethyl-5,6-dihydro-8H-[1,2,4]triazolo[4,3-a]pyrazin-7-yl)-thieno[2,3-d]pyrimidin-2-yloxy]-ethyl}-formamide]
- Ki: 25 nM

Compound: CCCc1cc2c(N3CCn4c(nnc4C(F)(F)F)C3)nc(OCC(C)(C)NC(C)=O)nc2s1 [Example 9-79, N-{1,1-Dimethyl-2-[6-propyl-4-(3-trifluoromethyl-5,6-dihydro-8H-[1,2,4]triazolo[4,3-a]pyrazin-7-yl)-thieno[2,3-d]pyrimidin-2-yloxy]-ethyl}-acetamide]
- Ki: 3.4 nM

Compound: CCCc1cc2c(N3CCn4c(nnc4C(F)(F)F)C3)nc(OC(C)CNC(=O)OC)nc2s1 (stereo not shown) [Example 9-80, {2-[6-Propyl-4-(3-trifluoromethyl-5,6-dihydro-8H-[1,2,4]triazolo[4,3-a]pyrazin-7-yl)-thieno[2,3-d]pyrimidin-2-yloxy]-propyl}-carbamic acid methyl ester]
- Ki: 15 nM

Compound: CCCc1cc2c(N3CCn4c(nnc4C(F)(F)F)C3)nc(OCC(C)NC(=O)OC)nc2s1 (stereo not shown) [Example 9-81, {1-Methyl-2-[6-propyl-4-(3-trifluoromethyl-5,6-dihydro-8H-[1,2,4]triazolo[4,3-a]pyrazin-7-yl)-thieno[2,3-d]pyrimidin-2-yloxy]-ethyl}-carbamic acid methyl ester]
- Ki: 7 nM

Compound: CCCc1cc2c(N3CCn4c(nnc4C(F)(F)F)C3)nc(OCC(C)(C)NC(=O)OC)nc2s1 [Example 9-82, {1,1-Dimethyl-2-[6-propyl-4-(3-trifluoromethyl-5,6-dihydro-8H-[1,2,4]triazolo[4,3-a]pyrazin-7-yl)-thieno[2,3-d]pyrimidin-2-yloxy]-ethyl}-carbamic acid methyl ester]
- Ki: 5 nM

Compound: CCCc1cc2c(N3CCn4c(nnc4C(F)(F)F)C3)nc(OCCF)nc2s1 [Example 9-83, 7-[2-(2-Fluoro-ethoxy)-6-propyl-thieno[2,3-d]pyrimidin-4-yl]-3-trifluoromethyl-5,6,7,8-tetrahydro-[1,2,4]triazolo[4,3-a]pyrazine]
- Ki: 0.3 nM

Compound: CCCc1cc2c(N3CCn4c(nnc4C(F)(F)F)C3)nc(OCC(F)(F)F)nc2s1 [Example 9-84, 7-[6-Propyl-2-(2,2,2-trifluoro-ethoxy)-thieno[2,3-d]pyrimidin-4-yl]-3-trifluoromethyl-5,6,7,8-tetrahydro-[1,2,4]triazolo[4,3-a]pyrazine]
- Ki: 680 nM

Compound: CCCc1cc2c(N3CCn4c(nnc4C(F)(F)F)C3)nc(OCCCN3CCCC3=O)nc2s1 [Example 9-85, 1-{3-[6-Propyl-4-(3-trifluoromethyl-5,6-dihydro-8H-[1,2,4]triazolo[4,3-a]pyrazin-7-yl)-thieno[2,3-d]pyrimidin-2-yloxy]-propyl}-pyrrolidin-2-one]
- Ki: 2000 nM

Compound: CCCc1cc2c(N3CCn4c(nnc4C(F)(F)F)C3)nc(OCCCNC(=O)OC)nc2s1 [Example 9-86, {3-[6-Propyl-4-(3-trifluoromethyl-5,6-dihydro-8H-[1,2,4]triazolo[4,3-a]pyrazin-7-yl)-thieno[2,3-d]pyrimidin-2-yloxy]-propyl}-carbamic acid methyl ester]
- Ki: 690 nM

Compound: CCCc1cc2c(N3CCn4c(nnc4C(F)(F)F)C3)nc(OCCCNC(C)=O)nc2s1 [Example 9-87, N-{3-[6-Propyl-4-(3-trifluoromethyl-5,6-dihydro-8H-[1,2,4]triazolo[4,3-a]pyrazin-7-yl)-thieno[2,3-d]pyrimidin-2-yloxy]-propyl}-acetamide]
- Ki: 430 nM

Compound: CCCc1cc2c(N3CCn4c(nnc4C(F)(F)F)C3)nc(OCCCCNC(=O)OC)nc2s1 [Example 9-88, {4-[6-Propyl-4-(3-trifluoromethyl-5,6-dihydro-8H-[1,2,4]triazolo[4,3-a]pyrazin-7-yl)-thieno[2,3-d]pyrimidin-2-yloxy]-butyl}-carbamic acid methyl ester]
- Ki: 420 nM

Compound: CCCc1cc2c(N3CCn4c(nnc4C(F)(F)F)C3)nc(OCCCCNC(C)=O)nc2s1 [Example 9-89, N-{4-[6-Propyl-4-(3-trifluoromethyl-5,6-dihydro-8H-[1,2,4]triazolo[4,3-a]pyrazin-7-yl)-thieno[2,3-d]pyrimidin-2-yloxy]-butyl}-acetamide]
- Ki: 290 nM

Compound: CCCc1cc2c(N3CCn4c(nnc4C(F)(F)F)C3)nc(OCCCNC=O)nc2s1 [Example 9-90, N-{3-[6-Propyl-4-(3-trifluoromethyl-5,6-dihydro-8H-[1,2,4]triazolo[4,3-a]pyrazin-7-yl)-thieno[2,3-d]pyrimidin-2-yloxy]-propyl}-formamide]
- Ki: 110 nM

Compound: CCCc1cc2c(N3CCn4c(nnc4C(F)(F)F)C3)nc(OCCCCNC=O)nc2s1 [Example 9-91, N-{4-[6-Propyl-4-(3-trifluoromethyl-5,6-dihydro-8H-[1,2,4]triazolo[4,3-a]pyrazin-7-yl)-thieno[2,3-d]pyrimidin-2-yloxy]-butyl}-formamide]
- Ki: 190 nM

Compound: CCCc1cc2c(N3CCn4c(nnc4C(F)(F)F)C3)nc(OCCCn3cccc3)nc2s1 [Example 9-92, 7-[6-Propyl-2-(3-pyrrol-1-yl-propoxy)-thieno[2,3-d]pyrimidin-4-yl]-3-trifluoromethyl-5,6,7,8-tetrahydro-[1,2,4]triazolo[4,3-a]pyrazine]
- Ki: 1300 nM

Compound: CCCc1cc2c(N3CCn4c(nnc4C(F)(F)F)C3)nc(OCCN(C)C=O)nc2s1 [Example 9-93, N-Methyl-N-{2-[6-propyl-4-(3-trifluoromethyl-5,6-dihydro-8H-[1,2,4]triazolo[4,3-a]pyrazin-7-yl)-thieno[2,3-d]pyrimidin-2-yloxy]-ethyl}-formamide]
- Ki: 52 nM

Compound: CCCc1cc2c(N3CCn4c(nnc4C(F)(F)F)C3)nc(N3CC[C@H](N(CCO)C(=O)OC)C3)nc2s1 [Example 9-94, (2-Hydroxy-ethyl)-{(S)-1-[6-propyl-4-(3-trifluoromethyl-5,6-dihydro-8H-[1,2,4]triazolo[4,3-a]pyrazin-7-yl)-thieno[2,3-d]pyrimidin-2-yl]-pyrrolidin-3-yl}-carbamic acid methyl ester]
- Ki: 280 nM

Compound: CCCc1cc2c(N3CCn4c(nnc4C(F)(F)F)C3)nc(OCCN(C)C(=O)OC)nc2s1 [Example 9-95, Methyl-{2-[6-propyl-4-(3-trifluoromethyl-5,6-dihydro-8H-[1,2,4]triazolo[4,3-a]pyrazin-7-yl)-thieno[2,3-d]pyrimidin-2-yloxy]-ethyl}-carbamic acid methyl ester]
- Ki: 7.2 nM

Compound: CCCc1cc2c(N3CCn4c(nnc4C(F)(F)F)C3)nc(N3CC[C@H](N(CCO)C(C)=O)C3)nc2s1 [Example 9-96, N-(2-Hydroxy-ethyl)-N-{(S)-1-[6-propyl-4-(3-trifluoromethyl-5,6-dihydro-8H-[1,2,4]triazolo[4,3-a]pyrazin-7-yl)-thieno[2,3-d]pyrimidin-2-yl]-pyrrolidin-3-yl}-acetamide]
- Ki: 78 nM
